Literature values, collected in paper PMC3694611 (Journal of natural products, 2012).

Experiments:
Plasmodium falciparum = settings: in words; ref [1a]
[1] = in words; ref [ii]

Substance | activity against the malarial parasite Plasmodium falciparum (Plasmodium falciparum) | anticancer potency [1]
Gallinamide A | moderately active | –
dolastatin-15 | – | exceedingly potent
